Measured values from patent US12559529B2, “NPY2 receptor agonists” (Boehringer Ingelheim International GmbH, priority 2019, dated 2026).
*1 amine or outer side, *2 acyl side, *3 side chain or, on linkers, in order; H or OH if unused. Where a SMILES comes first, the peptide text is derived from it. Side-chain parts run from the residue outwards. The star is where a group is joined. C18 diacid = O=C(O)CCCCCCCCCCCCCCCCC(=O)*; γGlu = O=C(O)[C@H](CCC(=O)[*:2])N[*:1]; Isovaleryl = CC(C)CC(=O)*; AEEA = NCCOCCOCC(=O)O

The compounds below were run against T1, Human Neuropeptide Y2 Receptor (Homo sapiens, UniProt P49146) (assay: Radioligand binding competition assay (RLB)). Details: Table 3; human 125I-PYY (1-36) 0.02 nM, Y2 receptor membranes; read-out: Ki.
T1 construct: purchased CHEMICON HTS066M
T1 sequence (P49146 1-381): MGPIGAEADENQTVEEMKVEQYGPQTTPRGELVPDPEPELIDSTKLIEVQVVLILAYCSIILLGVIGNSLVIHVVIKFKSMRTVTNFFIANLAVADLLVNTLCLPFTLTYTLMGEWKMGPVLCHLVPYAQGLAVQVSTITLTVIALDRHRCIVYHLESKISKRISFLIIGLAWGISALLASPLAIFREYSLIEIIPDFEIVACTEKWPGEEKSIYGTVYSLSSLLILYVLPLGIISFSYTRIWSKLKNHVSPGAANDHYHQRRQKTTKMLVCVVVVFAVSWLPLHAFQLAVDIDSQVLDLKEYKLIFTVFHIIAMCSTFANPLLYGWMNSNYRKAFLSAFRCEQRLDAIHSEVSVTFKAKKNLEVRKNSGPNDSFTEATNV
Method in brief: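 IC50 values come from nonlinear regression of sigmoidal dose-response curves of filter-bound radioactivity. Peptides competed with radioligand at human Y2 receptor membranes (0.5 μg protein/well) for 2 h at room temperature in pH 7.4 HEPES buffer containing Mg2+, Ca2+ and 0.2% ovalbumin.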
Compound CC(C)CC(=O)N[C@@H](C)C(=O)N1CCC[C@H]1C(=O)N[C@@H](CCC(=O)O)C(=O)N[C@@H](CCCCNC(=O)COCCOCCNC(=O)COCCOCCNC(=O)CC[C@H](NC(=O)CCCCCCCCCCCCCCCCC(=O)O)C(=O)O)C(=O)N1CCC[C@H]1C(=O)N[C@@H](CCC(=O)O)C(=O)N[C@@H](CCC(=O)O)C(=O)N[C@@H](CCC(=O)O)C(=O)N[C@@H](C)C(=O)N[C@@H](CO)C(=O)N1CCC[C@H]1C(=O)N[C@@H](CCC(=O)O)C(=O)N[C@@H](CCC(=O)O)C(=O)N[C@@H](CC(C)C)C(=O)N[C@@H](CCC(=O)O)C(=O)N[C@@H](CCC(N)=O)C(=O)N[C@@H](Cc1ccc(O)cc1)C(=O)N[C@@H](Cc1ccc(O)cc1)C(=O)N[C@H](C(=O)N[C@@H](CO)C(=O)N[C@@H](CC(C)C)C(=O)N[C@@H](CCCNC(=N)N)C(=O)N[C@@H](Cc1c[nH]cn1)C(=O)N[C@@H](Cc1ccc(O)cc1)C(=O)N[C@@H](Cc1ccc(O)cc1)C(=O)N[C@@H](CC(N)=O)C(=O)N[C@@H](Cc1c[nH]c2ccccc12)C(=O)N[C@@H](CC(C)C)C(=O)N[C@H](C(=O)N[C@@H](CCCNC(=N)N)C(=O)N[C@@H](CCC(N)=O)C(=O)N[C@@H](CCCNC(=N)N)C(=O)N[C@@H](Cc1ccc(O)cc1)C(N)=O)[C@@H](C)O)C(C)C [Compound 170, N{alpha-4}-(3-methylbutanoyl)-N{epsilon-7}-[2-(2-{2-[2-(2-{2-[(4S)-4-carboxy-4-(17-carboxyheptadecanamido)butanamido]ethoxy}ethoxy)acetamido]ethoxy}ethoxy)acetamido]-[4A,7K,9E,11E,18E,19Q,22V,28Y,30W,31L]hPYY (4-36)] (Isovaleryl-APEK([AEEA-AEEA-γGlu-C18 diacid])PEEEASPEELEQYYVSLRHYYNWLTRQRY-NH2) has a Ki of 12.3 nM.
CC(C)CC(=O)N[C@@H](C)C(=O)N1CCC[C@H]1C(=O)N[C@@H](CCC(=O)O)C(=O)N[C@@H](CCCCNC(=O)COCCOCCNC(=O)COCCOCCNC(=O)CC[C@H](NC(=O)CCCCCCCCCCCCCCCCC(=O)O)C(=O)O)C(=O)N1CCC[C@H]1C(=O)N[C@@H](CCC(=O)O)C(=O)N[C@@H](CCC(=O)O)C(=O)N[C@@H](CC(=O)O)C(=O)N[C@@H](CO)C(=O)N[C@@H](CO)C(=O)N1CCC[C@H]1C(=O)N[C@@H](CCC(=O)O)C(=O)N[C@@H](CCC(=O)O)C(=O)N[C@@H](CC(C)C)C(=O)N[C@@H](CCC(N)=O)C(=O)N[C@@H](CCCNC(=N)N)C(=O)N[C@@H](Cc1ccc(O)cc1)C(=O)N[C@@H](Cc1ccc(O)cc1)C(=O)N[C@H](C(=O)N[C@@H](CCC(=O)O)C(=O)N[C@@H](CC(C)C)C(=O)N[C@@H](CCCNC(=N)N)C(=O)N[C@@H](Cc1c[nH]cn1)C(=O)N[C@@H](Cc1ccc(O)cc1)C(=O)N[C@@H](Cc1ccc(O)cc1)C(=O)N[C@@H](CC(N)=O)C(=O)N[C@@H](Cc1c[nH]c2ccccc12)C(=O)N[C@@H](CC(C)C)C(=O)N[C@H](C(=O)N[C@@H](CCCNC(=N)N)C(=O)N[C@@H](CCC(N)=O)C(=O)N[C@@H](CCCNC(=N)N)C(=O)N[C@@H](Cc1ccc(O)cc1)C(N)=O)[C@@H](C)O)C(C)C [Compound 177, N{alpha-4}-(3-methylbutanoyl)-N{epsilon-7}-[2-(2-{2-[2-(2-{2-[(4S)-4-carboxy-4-(17-carboxyheptadecanamido)butanamido]ethoxy}ethoxy)acetamido]ethoxy}ethoxy)acetamido]-[4A,7K,9E,12S,18Q,22V,23E,28Y,30W,31L]hPYY (4-36)] gave a Ki of 2.55 nM.
CC(C)CC(=O)N[C@@H](C)C(=O)N1CCC[C@H]1C(=O)N[C@@H](CCC(=O)O)C(=O)N[C@@H](CCCCNC(=O)COCCOCCNC(=O)COCCOCCNC(=O)CC[C@H](NC(=O)CCCCCCCCCCCCCCCCC(=O)O)C(=O)O)C(=O)N1CCC[C@H]1C(=O)N[C@@H](CCC(=O)O)C(=O)N[C@@H](CCC(=O)O)C(=O)N[C@@H](CC(=O)O)C(=O)N[C@@H](C)C(=O)N[C@H](C(=O)N1CCC[C@H]1C(=O)N[C@@H](CCC(=O)O)C(=O)N[C@@H](CCC(=O)O)C(=O)N[C@H](C(=O)N[C@@H](CCC(=O)O)C(=O)N[C@@H](CCCNC(=N)N)C(=O)N[C@@H](Cc1ccc(O)cc1)C(=O)N[C@@H](Cc1ccc(O)cc1)C(=O)N[C@H](C(=O)N[C@@H](CO)C(=O)N[C@@H](CC(C)C)C(=O)N[C@@H](CCCNC(=N)N)C(=O)N[C@@H](Cc1c[nH]cn1)C(=O)N[C@@H](Cc1ccc(O)cc1)C(=O)N[C@@H](Cc1ccc(O)cc1)C(=O)N[C@@H](CC(N)=O)C(=O)N[C@@H](Cc1c[nH]c2ccccc12)C(=O)N[C@@H](CC(C)C)C(=O)N[C@H](C(=O)N[C@@H](CCCNC(=N)N)C(=O)N[C@@H](CCC(N)=O)C(=O)N[C@@H](CCCNC(=N)N)C(=O)N[C@@H](Cc1ccc(O)cc1)C(N)=O)[C@@H](C)O)C(C)C)[C@@H](C)O)[C@@H](C)O [Compound 178, N{alpha-4}-(3-methylbutanoyl)-N{epsilon-7}-[2-(2-{2-[2-(2-{2-[(4S)-4-carboxy-4-(17-carboxyheptadecanamido)butanamido]ethoxy}ethoxy)acetamido]ethoxy}ethoxy)acetamido]-[4A,7K,9E,13T,17T,18E,22V,28Y,30W,31L]hPYY (4-36)] (Isovaleryl-APEK([AEEA-AEEA-γGlu-C18 diacid])PEEDATPEETERYYVSLRHYYNWLTRQRY-NH2) was tested, and the Ki was 2.05 nM.
For CC(C)CC(=O)N[C@@H](C)C(=O)N1CCC[C@H]1C(=O)N[C@@H](C)C(=O)N[C@@H](CCCCNC(=O)COCCOCCNC(=O)COCCOCCNC(=O)CC[C@H](NC(=O)CCCCCCCCCCCCCCCCC(=O)O)C(=O)O)C(=O)N1CCC[C@H]1C(=O)N[C@@H](CCC(=O)O)C(=O)N[C@@H](CCC(=O)O)C(=O)N[C@@H](CC(=O)O)C(=O)N[C@@H](C)C(=O)N[C@@H](CO)C(=O)N1CCC[C@H]1C(=O)N[C@@H](C)C(=O)N[C@@H](CCC(=O)O)C(=O)N[C@@H](CC(C)C)C(=O)N[C@@H](CCC(N)=O)C(=O)N[C@@H](CCCNC(=N)N)C(=O)N[C@@H](Cc1ccc(O)cc1)C(=O)N[C@@H](Cc1ccc(O)cc1)C(=O)N[C@H](C(=O)N[C@@H](CO)C(=O)N[C@@H](CC(C)C)C(=O)N[C@@H](CCCNC(=N)N)C(=O)N[C@@H](Cc1c[nH]cn1)C(=O)N[C@@H](Cc1ccc(O)cc1)C(=O)N[C@@H](Cc1ccc(O)cc1)C(=O)N[C@@H](CC(N)=O)C(=O)N[C@@H](Cc1c[nH]c2ccccc12)C(=O)N[C@@H](CC(C)C)C(=O)N[C@H](C(=O)N[C@@H](CCCNC(=N)N)C(=O)N[C@@H](CCC(N)=O)C(=O)N[C@@H](CCCNC(=N)N)C(=O)N[C@@H](Cc1ccc(O)cc1)C(N)=O)[C@@H](C)O)C(C)C [Compound 179, N{alpha-4}-(3-methylbutanoyl)-N{epsilon-7}-[2-(2-{2-[2-(2-{2-[(4S)-4-carboxy-4-(17-carboxyheptadecanamido)butanamido]ethoxy}ethoxy)acetamido]ethoxy}ethoxy)acetamido]-[4A,6A,7K,9E,15A,18Q,22V,28Y,30W,31L]hPYY (4-36)], the Ki was 1 nM.
Compound CC(C)CC(=O)N[C@@H](C)C(=O)N1CCC[C@H]1C(=O)N[C@@H](CCC(=O)O)C(=O)N[C@@H](CCCCNC(=O)COCCOCCNC(=O)COCCOCCNC(=O)CC[C@H](NC(=O)CCCCCCCCCCCCCCCCC(=O)O)C(=O)O)C(=O)N1CCC[C@H]1C(=O)N[C@@H](CCC(=O)O)C(=O)N[C@@H](C)C(=O)N[C@@H](CC(=O)O)C(=O)N[C@@H](C)C(=O)N[C@@H](CO)C(=O)N1CCC[C@H]1C(=O)N[C@@H](CCC(=O)O)C(=O)N[C@@H](CCC(=O)O)C(=O)N[C@@H](CC(C)C)C(=O)N[C@@H](CCC(N)=O)C(=O)N[C@@H](CCCNC(=N)N)C(=O)N[C@@H](Cc1ccc(O)cc1)C(=O)N[C@@H](Cc1ccc(O)cc1)C(=O)N[C@H](C(=O)N[C@@H](C)C(=O)N[C@@H](CC(C)C)C(=O)N[C@@H](CCCNC(=N)N)C(=O)N[C@@H](Cc1c[nH]cn1)C(=O)N[C@@H](Cc1ccc(O)cc1)C(=O)N[C@@H](Cc1ccc(O)cc1)C(=O)N[C@@H](CC(N)=O)C(=O)N[C@@H](Cc1c[nH]c2ccccc12)C(=O)N[C@@H](CC(C)C)C(=O)N[C@H](C(=O)N[C@@H](CCCNC(=N)N)C(=O)N[C@@H](CCC(N)=O)C(=O)N[C@@H](CCCNC(=N)N)C(=O)N[C@@H](Cc1ccc(O)cc1)C(N)=O)[C@@H](C)O)C(C)C [Compound 181, N{alpha-4}-(3-methylbutanoyl)-N{epsilon-7}-[2-(2-{2-[2-(2-{2-[(4S)-4-carboxy-4-(17-carboxyheptadecanamido)butanamido]ethoxy}ethoxy)acetamido]ethoxy}ethoxy)acetamido]-[4A,7K,9E,10A,18Q,22V,23A,28Y,30W,31L]hPYY (4-36)] has a Ki of 0.67 nM.
